Results on six substances are retold here after patent publication US6323315A, “Dolastatin peptides” (priority 2000, dated 2001).

The subject of assay [1] is tubulin. Particulars: cited from earlier work.
Assay [2] deals with human lymphoma cell lines. Particulars: cited from earlier work.
Assay [3] has as its system P388 lymphocytic leukemia (PS system) cell line. The note with it: cited from earlier work.
For assay [4], the system named is NCI-H460 (non-small lung carcinoma). Briefly: in vitro cytotoxicity, cultured cancer cell panel: NCI-H460. The class given is cell-based, Human. Particulars: for GI-50: NCI-H460, lung-NSC, 48 hours; for LC-50 / TGI: NCI-H460; for LC-50: -50% growth; for TGI: total growth inhibition (0% growth). As to the method: (§1) Compounds prepared according to Examples 1-14 above were evaluated for in vitro cytotoxicity against a panel of cultured cancer cells, including the cell lines OVCAR-3 (ovarian cancer), SF-295 (central nervous system), A498 (renal cancer), NCI-H460 (non-small lung carcinoma), KM20L2 (colon cancer) and SK-MEL-5 (melanoma). For each cell line, each compound was tested at 5 concentrations, 100 μg/mL, 10 μg/mL, 1 μg/mL, 0.1 μg/mL and 0.01 μg/mL. Percent growth values were calculated for each concentration, and the two or three concentrations with growth values above, below or near 50% growth (relative to control) were used to calculate the ED50 value using a linear regression calculation. In cases in which 50% growth inhibition was not observed for any of the concentrations, the ED50 value was expressed as ED50 >100 μg/mL. If the growth inhibition was greater than 50% for each concentration, the ED50 was expressed as <0.01 μg/mL. Similar calculations were performed for total growth inhibition (TGI; 0% growth) and LC50 (-50% growth).
(§2) At the start of each experiment, cells from the in vitro cell culture were inoculated into tubes or microtiter plates. One set of control tubes/plates was immediately counted to determine the cell count at the beginning of the experiment. This is the "baseline count" or T0 reading. After 48 hours, a second set of control tubes/plates is analyzed to determine the control growth value. The growth or death of cells relative to the T0 value is used to define the percent growth.

Assay [5] relates to A498 (renal cancer). Nature of the assay: in vitro cytotoxicity, cultured cancer cell panel: A498. The class given is cell-based, Human. Particulars: for GI-50: A498, renal, 48 hours; for LC-50 / TGI: A498; for LC-50: -50% growth; for TGI: total growth inhibition (0% growth). As to the method: as §1, §2
Assay [6] deals with KM20L2 (colon cancer). Nature of the assay: in vitro cytotoxicity, cultured cancer cell panel: KM20L2. Particulars: for GI-50: KM20L2, colon, 48 hours; for LC-50 / TGI: KM20L2; for LC-50: -50% growth; for TGI: total growth inhibition (0% growth). The class given is cell-based, Human. As to the method: as §1, §2
In assay [7] the test system is P-388 Lymphocytic Leukemia. Nature of the assay: Murine P-388 lymphocytic leukemia cell line inhibition. The class given is cell-based. The note with it: P-388 mouse leukemia.
Assay [8] relates to SK-MEL-5 (melanoma). Nature of the assay: in vitro cytotoxicity, cultured cancer cell panel: SK-MEL-5. The class given is cell-based, Human. The note with it: for GI-50: SK-MEL-5, melanoma, 48 hours; for LC-50 / TGI: SK-MEL-5; for LC-50: -50% growth; for TGI: total growth inhibition (0% growth). As to the method: as §1, §2
For assay [9], the system named is SF-295 (central nervous system). Nature of the assay: in vitro cytotoxicity, cultured cancer cell panel: SF-295. The class given is cell-based, Human. The note with it: for GI-50: SF-295, CNS, 48 hours; for LC-50 / TGI: SF-295; for LC-50: -50% growth; for TGI: total growth inhibition (0% growth). As to the method: as §1, §2
Assay [10] has as its system OVCAR-3 (ovarian cancer). Briefly: in vitro cytotoxicity, cultured cancer cell panel: OVCAR-3. Type of assay: cell-based, Human. Particulars: for GI-50: OVCAR-3, ovarian, 48 hours; for TGI / LC-50: OVCAR-3; for TGI: total growth inhibition (0% growth); for LC-50: -50% growth. As to the method:
as §1, §2

As for Dolastatin 10, the tubulin polymerization result in assay [1] is reported as “effectively inhibit”. Moreover, in assay [2], the “growth of four different human lymphoma cell lines” value was “effectively inhibit”.

Consider Dolastatin 15, for which the tubulin polymerization entry in assay [1] was “effectively inhibit”. Further, the “growth of P388 lymphocytic leukemia (PS system) cell line” value in assay [3] is recorded as “inhibits the growth”. For the same substance, in [2], the “growth of four different human lymphoma cell lines” value is given as “effectively inhibit”.

In the case of “Dov-Val-Dil-Dap 1-bicyclo[3.3.0]octane amide [Compound 13b]”, the GI-50 came to 0.00047 µg/mL in assay [4], 0.002 µg/mL in [5], 0.00036 µg/mL in assay [6] and 0.0007 µg/mL in [8]. In addition, the LC-50 in assay [4], in assay [5], in assay [6] and in assay [8] was greater than 0.01 µg/mL each time. Moreover, the TGI in assay [4], in [5], in assay [6] and in assay [8] was greater than 10 ng/mL each time. In assay [7], this substance returned an ED50 of 2.2 ng/mL.

Consider “Dov-Val-Dil-Dap 2-[p-aminophenyl]ethylamide [Compound 29d]”, for which the GI-50 in assay [4] is 0.00013 µg/mL; in assay [5], greater than 0.01 µg/mL; in assay [9] it was 0.00053 µg/mL; in assay [6], 4.9e-05 µg/mL; in assay [10], 5e-05 µg/mL; in assay [8], 0.00023 µg/mL. The TGI in assay [4] is 0.87 ng/mL; in assay [6], greater than 10 ng/mL; in assay [10] it was 0.79 ng/mL. Moreover, the ED50 in [7] turned out to be 0.338 ng/mL.

For “Dov-Val-Dil-Dap-Met 1-(bicyclo[3.3.0]octane) Amide [Compound 12d]”, the GI-50 in [4] worked out at 0.00029 µg/mL; in assay [5], 0.00048 µg/mL; in [9], 0.00047 µg/mL; in [6], 0.0003 µg/mL; in assay [10] it was 0.00031 µg/mL; in assay [8], 0.00044 µg/mL. Also, the LC-50 in assay [4], in [5], in assay [9], in [6], in assay [10] and in [8] was greater than 0.01 µg/mL each time. The TGI was 4 ng/mL in [4]; greater than 10 ng/mL in assay [5]; greater than 10 ng/mL in assay [9]; 0.9 ng/mL in [6]; greater than 10 ng/mL in assay [10]; greater than 10 ng/mL in [8].

As for “Dov-Val-Dil-Dap-Phe Amide [Compound 28d]”, the GI-50 was found to be 4.1e-07 µg/mL in assay [4]; 3.4e-06 µg/mL in [5]; 6.1e-07 µg/mL in [9]; 2e-07 µg/mL in [6]; 3e-07 µg/mL in [10]; 5.6e-07 µg/mL in assay [8]. In addition, the LC-50 in assay [4], in assay [5], in assay [9], in assay [6], in assay [10] and in assay [8] was greater than 0.0001 µg/mL each time. In addition, the TGI in [4] was greater than 0.1 ng/mL; in assay [5] it was greater than 0.1 ng/mL; in assay [9] it was greater than 0.1 ng/mL; in assay [6], 0.0041 ng/mL; in assay [10], 0.011 ng/mL; in [8], greater than 0.1 ng/mL. In [7], this substance had an ED50 of 0.00255 ng/mL.

One may read the TGI as the concentration giving total growth inhibition. High values mean lower sensitivity of the cells, low ones greater sensitivity of the cells.
